Test results as given in ChEMBL document CHEMBL1158935, “New Polyhydroxy Sterols, Dysidamides, and a Dideoxyhexose from the Sponge Dysidea herbacea” (J Nat Prod, 1991).
In brackets after ≈: the same amount, converted by molar mass.

What follows are compounds tested on P388 (assay: Cytotoxicity against mouse P388 cells).
Type: functional, cell-based

SMILES	IC50
C=C(CC[C@@H](C)[C@H]1CC[C@H]2C3=C[C@@H](OC(C)=O)[C@@]4(O)C[C@@H](OC(C)=O)CC[C@]4(C)[C@@]3(O)[C@H](OC(C)=O)C[C@]12C)C(C)C	6.5 mg/L (≈ 11 µM)
C=C(CC[C@@H](C)[C@H]1CC[C@H]2C3=C[C@@H](OC(C)=O)[C@@]4(O)C[C@@H](OC(C)=O)CC[C@]4(C)[C@H]3CC[C@]12C)C(C)C	1.46 mg/L (≈ 2.84 µM)
C=C(CC[C@@H](C)[C@H]1CC[C@H]2C3=C[C@H](OC(C)=O)[C@@]4(O)C[C@@H](OC(C)=O)CC[C@]4(C)[C@@]3(O)[C@H](OC(C)=O)C[C@]12C)C(C)C	4.78 mg/L (≈ 8.12 µM)
